Reference: ChEMBL document CHEMBL3046725, “Synthesis and preliminary antibacterial evaluation of hydroxamic acid and N-formyl hydroxylamine derivatives bearing oxazole ring” (2013)
Converted amounts (≈) assume the structure as drawn.

What follows are molecules tested on Streptococcus pneumoniae (assay: Antibacterial activity against Streptococcus pneumoniae NCTC 7466 after 24 hr by broth microdilution method). Conditions: NCTC 7466, 24 h.
Format: functional
Molecule `CCCC[C@H](CN(O)C=O)C(=O)N[C@H](c1nc(C(=O)Nc2ccc(C)cc2)co1)C(C)C` has an MIC of over 200 µg/mL.
`CCCC[C@H](CN(O)C=O)C(=O)N[C@H](c1nc(C(=O)Nc2ccc(F)c(F)c2)co1)C(C)C` gave an MIC of over 200 µg/mL.
`CCCC[C@H](CN(O)C=O)C(=O)N[C@H](c1nc(C(=O)N2CCCCC2)co1)C(C)C` was tested, and the MIC was over 200 µg/mL.
For `CCCC[C@H](CC(=O)NO)C(=O)N[C@H](c1nc(C(=O)Nc2ccc(F)cn2)co1)C(C)C`, the MIC was over 200 µg/mL.
Work on `CCCC[C@H](CN(O)C=O)C(=O)N[C@H](c1nc(C(=O)Nc2ccc3c(c2)OCO3)co1)C(C)C` yielded an MIC of over 200 µg/mL.
Work on `Cl.O=C(O)c1cn(C2CC2)c2cc(N3CCNCC3)c(F)cc2c1=O` [CIPROFLOXACIN HYDROCHLORIDE] yielded an MIC of 6.25 µg/mL.
`CCCC[C@H](CN(O)C=O)C(=O)N[C@H](c1nc(C(=O)Nc2ccc(F)cc2)co1)C(C)C` gave an MIC of over 200 µg/mL.
`CCCC[C@H](CC(=O)NO)C(=O)N[C@H](c1nc(C(=O)Nc2ccc(F)cc2)co1)C(C)C` showed an MIC of over 200 µg/mL.
`CCCC[C@H](CC(=O)NO)C(=O)N[C@H](c1nc(C(=O)Nc2ccc(C)cc2)co1)C(C)C` gave an MIC of 200 µg/mL (≈ 450 µM).
With `CCCC[C@H](CN(O)C=O)C(=O)N[C@H](c1nc(C(=O)N(CC)CC)co1)C(C)C` the MIC was 50 µg/mL (≈ 122 µM).
With `CCCC[C@H](CN(O)C=O)C(=O)N[C@H](c1nc(C(=O)Nc2ccc(F)cn2)co1)C(C)C` the MIC was over 200 µg/mL.

What follows are molecules tested on Staphylococcus aureus (assay: Antibacterial activity against Staphylococcus aureus ATCC 25923 after 24 hr by broth microdilution method). Conditions: ATCC 25923, 24 h.
Format: functional
`CCCC[C@H](CN(O)C=O)C(=O)N[C@H](c1nc(C(=O)Nc2ccc(C)cc2)co1)C(C)C` gave an MIC of over 200 µg/mL.
Work on `CCCC[C@H](CN(O)C=O)C(=O)N[C@H](c1nc(C(=O)Nc2ccc(F)c(F)c2)co1)C(C)C` yielded an MIC of over 200 µg/mL.
`CCCC[C@H](CN(O)C=O)C(=O)N[C@H](c1nc(C(=O)N2CCCCC2)co1)C(C)C` was tested, and the MIC was 50 µg/mL (≈ 118 µM).
Molecule `CCCC[C@H](CC(=O)NO)C(=O)N[C@H](c1nc(C(=O)Nc2ccc(F)cn2)co1)C(C)C` has an MIC of 100 µg/mL (≈ 222 µM).
`CCCC[C@H](CN(O)C=O)C(=O)N[C@H](c1nc(C(=O)Nc2ccc3c(c2)OCO3)co1)C(C)C` gave an MIC of over 200 µg/mL.
For `CCCC[C@H](CN(O)C=O)C(=O)N[C@H](c1nc(C(=O)Nc2ccc(F)cc2)co1)C(C)C`, the MIC was over 200 µg/mL.
Molecule `CCCC[C@H](CC(=O)NO)C(=O)N[C@H](c1nc(C(=O)Nc2ccc(F)cc2)co1)C(C)C` has an MIC of 100 µg/mL (≈ 223 µM).
With `CCCC[C@H](CC(=O)NO)C(=O)N[C@H](c1nc(C(=O)Nc2ccc(C)cc2)co1)C(C)C` the MIC was 50 µg/mL (≈ 112 µM).
For `CCCC[C@H](CN(O)C=O)C(=O)N[C@H](c1nc(C(=O)N(CC)CC)co1)C(C)C`, the MIC was 25 µg/mL (≈ 60.9 µM).
For `CCCC[C@H](CN(O)C=O)C(=O)N[C@H](c1nc(C(=O)Nc2ccc(F)cn2)co1)C(C)C`, the MIC was over 200 µg/mL.

These molecules were tested on Pseudomonas aeruginosa (assay: Antibacterial activity against Pseudomonas aeruginosa ATCC 27853 after 24 hr by broth microdilution method). Conditions: ATCC 27853, 24 h.
Format: functional
Work on `CCCC[C@H](CN(O)C=O)C(=O)N[C@H](c1nc(C(=O)Nc2ccc(C)cc2)co1)C(C)C` yielded an MIC of over 200 µg/mL.
`CCCC[C@H](CN(O)C=O)C(=O)N[C@H](c1nc(C(=O)Nc2ccc(F)c(F)c2)co1)C(C)C` was tested, and the MIC was over 200 µg/mL.
`CCCC[C@H](CN(O)C=O)C(=O)N[C@H](c1nc(C(=O)N2CCCCC2)co1)C(C)C` gave an MIC of 100 µg/mL (≈ 237 µM).
In the case of `CCCC[C@H](CC(=O)NO)C(=O)N[C@H](c1nc(C(=O)Nc2ccc(F)cn2)co1)C(C)C`, the MIC is reported as 100 µg/mL (≈ 222 µM).
In the case of `CCCC[C@H](CN(O)C=O)C(=O)N[C@H](c1nc(C(=O)Nc2ccc3c(c2)OCO3)co1)C(C)C`, the MIC is reported as over 200 µg/mL.
Molecule `CCCC[C@H](CN(O)C=O)C(=O)N[C@H](c1nc(C(=O)Nc2ccc(F)cc2)co1)C(C)C` has an MIC of over 200 µg/mL.
`CCCC[C@H](CC(=O)NO)C(=O)N[C@H](c1nc(C(=O)Nc2ccc(F)cc2)co1)C(C)C` gave an MIC of 100 µg/mL (≈ 223 µM).
`CCCC[C@H](CC(=O)NO)C(=O)N[C@H](c1nc(C(=O)Nc2ccc(C)cc2)co1)C(C)C` gave an MIC of 100 µg/mL (≈ 225 µM).
For `CCCC[C@H](CN(O)C=O)C(=O)N[C@H](c1nc(C(=O)N(CC)CC)co1)C(C)C`, the MIC was 100 µg/mL (≈ 244 µM).
`CCCC[C@H](CN(O)C=O)C(=O)N[C@H](c1nc(C(=O)Nc2ccc(F)cn2)co1)C(C)C` showed an MIC of over 200 µg/mL.

The molecules below were run on Escherichia coli (assay: Antibacterial activity against Escherichia coli ATCC 25922 after 24 hr by broth microdilution method). Conditions: ATCC 25922, 24 h.
Format: functional
With `CCCC[C@H](CN(O)C=O)C(=O)N[C@H](c1nc(C(=O)Nc2ccc(C)cc2)co1)C(C)C` the MIC was over 200 µg/mL.
In the case of `CCCC[C@H](CN(O)C=O)C(=O)N[C@H](c1nc(C(=O)Nc2ccc(F)c(F)c2)co1)C(C)C`, the MIC is reported as over 200 µg/mL.
For `CCCC[C@H](CN(O)C=O)C(=O)N[C@H](c1nc(C(=O)N2CCCCC2)co1)C(C)C`, the MIC was 25 µg/mL (≈ 59.2 µM).
In the case of `CCCC[C@H](CC(=O)NO)C(=O)N[C@H](c1nc(C(=O)Nc2ccc(F)cn2)co1)C(C)C`, the MIC is reported as 50 µg/mL (≈ 111 µM).
`CCCC[C@H](CN(O)C=O)C(=O)N[C@H](c1nc(C(=O)Nc2ccc3c(c2)OCO3)co1)C(C)C` gave an MIC of over 200 µg/mL.
For `CCCC[C@H](CN(O)C=O)C(=O)N[C@H](c1nc(C(=O)Nc2ccc(F)cc2)co1)C(C)C`, the MIC was over 200 µg/mL.
`CCCC[C@H](CC(=O)NO)C(=O)N[C@H](c1nc(C(=O)Nc2ccc(F)cc2)co1)C(C)C` was tested, and the MIC was 100 µg/mL (≈ 223 µM).
`CCCC[C@H](CC(=O)NO)C(=O)N[C@H](c1nc(C(=O)Nc2ccc(C)cc2)co1)C(C)C` gave an MIC of 25 µg/mL (≈ 56.2 µM).
Work on `CCCC[C@H](CN(O)C=O)C(=O)N[C@H](c1nc(C(=O)N(CC)CC)co1)C(C)C` yielded an MIC of 12.5 µg/mL (≈ 30.4 µM).
`CCCC[C@H](CN(O)C=O)C(=O)N[C@H](c1nc(C(=O)Nc2ccc(F)cn2)co1)C(C)C` was tested, and the MIC was over 200 µg/mL.
